Assay results from patent US12655116B2, “Substituted isophthalic acid diamides” (Bayer Aktiengesellschaft, priority 2020, dated 2026).

Tests used:
[1] = tested on: AVEFA; assay: Pre-emergence herbicidal action against AVEFA; assay type: in vivo, Avena fatua; conditions: Avena fatua, 504 h; 80 g/ha, pre-emergence
In short: (§1)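 Pre-emergence soil-surface spray of formulated compound (WP or EC; 600 to 800 l/ha; 0.2% wetting agent) over seeds sown in sandy loam. After 3 weeks under greenhouse conditions, damage is estimated visually in percent against untreated plants.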

[2] = tested on: SETVI; assay: Pre-emergence herbicidal action against SETVI; assay type: in vivo, Setaria viridis; conditions: Setaria viridis, 504 h; for pest or weed control at 80 g/ha: dosage 80 g/ha
In short: as §1

[3] = tested on: ABUTH; assay: Pre-emergence herbicidal action against ABUTH; assay type: in vivo, Abutilon theophrasti; conditions: Abutilon theophrasti, 504 h; for pest or weed control at 80 g/ha: scored visually after 3 weeks vs untreated controls (100% = plants have died, 0% = like control plants); for pest or weed control at 20 g/ha: dosage 20 g/ha, scored visually after 3 weeks vs untreated controls, 100% = plants have died, 0% = like control plants, read-out: Pre-emergence action against ABUTH (herbicidal activity in percent)
In short: as §1

[4] = tested on: VIOTR; assay: Pre-emergence herbicidal action against VIOTR; assay type: in vivo, Viola tricolor; conditions: Viola tricolor, 504 h; for pest or weed control at 20 g/ha: dosage 20 g/ha; for pest or weed control at 80 g/ha: dosage 80 g/ha
In short: as §1

[5] = tested on: VIOTR; assay: Post-emergence herbicidal action against VIOTR; assay type: in vivo, Viola tricolor; conditions: Viola tricolor, 504 h, 20 g/ha
In short: (§2)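 Greenhouse plants in sandy loam were sprayed at the one-leaf stage, 2 to 3 weeks after sowing, with WP or EC formulations as aqueous suspension or emulsion (600 to 800 l/ha water, 0.2% wetting agent). Visual damage was scored about 3 weeks later versus untreated controls, 0% = like control, 100% = dead.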

[6] = tested on: AMARE; assay: Post-emergence herbicidal action against AMARE; assay type: in vivo, Amaranthus retroflexus; conditions: Amaranthus retroflexus, 504 h, 20 g/ha, visual assessment about 3 weeks after treatment, 100% = plants have died, 0% = like control plants
In short: as §2

[7] = tested on: ALOMY; assay: Pre-emergence herbicidal action against ALOMY; assay type: in vivo, Alopecurus myosuroides; conditions: Alopecurus myosuroides, 504 h, pre-emergence; for pest or weed control at 80 g/ha: scored visually after 3 weeks vs untreated controls (100% = plants have died, 0% = like control plants); for pest or weed control at 20 g/ha: scored visually after 3 weeks, 100% = plants have died, 0% = like control plants
In short: as §1

[8] = tested on: PHBPU; assay: Post-emergence herbicidal action against PHBPU; assay type: in vivo, Pharbitis purpurea; conditions: Ipomoea purpurea, 504 h; for pest or weed control at 5 g/ha: dosage 5 g/ha; for pest or weed control at 20 g/ha: dosage 20 g/ha
In short: as §2

[9] = tested on: MATIN; assay: Pre-emergence herbicidal action against MATIN; assay type: in vivo, Matricaria inodora; conditions: Tripleurospermum inodorum, 504 h; for pest or weed control at 20 g/ha: dosage 20 g/ha; for pest or weed control at 80 g/ha: dosage 80 g/ha
In short: as §1

[10] = tested on: AMARE; assay: Pre-emergence herbicidal action against AMARE; assay type: in vivo, Amaranthus retroflexus; conditions: Amaranthus retroflexus, 504 h, scored visually after 3 weeks vs untreated controls, 100% = plants have died, 0% = like control plants
In short: as §1

[11] = tested on: VERPE; assay: Pre-emergence herbicidal action against VERPE; assay type: in vivo, Veronica persica; conditions: Veronica persica, 504 h; for pest or weed control at 80 g/ha: dosage 80 g/ha
In short: as §1

[12] = tested on: ECHCG; assay: Pre-emergence herbicidal action against ECHCG; assay type: in vivo, Echinochloa crus-galli; conditions: Echinochloa crus-galli, 504 h, 80 g/ha
In short: as §1

[13] = tested on: LOLRI; assay: Pre-emergence herbicidal action against LOLRI; assay type: in vivo, Lolium rigidum; conditions: Lolium rigidum, 504 h, 80 g/ha
In short: as §1

[14] = tested on: SETVI; assay: Post-emergence herbicidal action against SETVI; assay type: in vivo, Setaria viridis; conditions: Setaria viridis, 504 h; for pest or weed control at 5 g/ha: dosage 5 g/ha; for pest or weed control at 20 g/ha: dosage 20 g/ha
In short: as §2

[15] = tested on: POLCO; assay: Pre-emergence herbicidal action against POLCO; assay type: in vivo, Polygonum convolvulus; conditions: Fallopia convolvulus, 504 h, dosage 80 g/ha
In short: as §1

[16] = tested on: ABUTH; assay: Post-emergence herbicidal action against ABUTH; assay type: in vivo, Abutilon theophrasti; conditions: Abutilon theophrasti, 504 h, visual assessment about 3 weeks after treatment vs untreated controls; for pest or weed control at 5 g/ha: dosage 5 g/ha; for pest or weed control at 20 g/ha: dosage 20 g/ha
In short: as §2

[17] = tested on: ALOMY; assay: Post-emergence herbicidal action against ALOMY; assay type: in vivo, Alopecurus myosuroides; conditions: Alopecurus myosuroides, 504 h, visual assessment about 3 weeks after treatment vs untreated controls; for pest or weed control at 5 g/ha: dosage 5 g/ha; for pest or weed control at 20 g/ha: dosage 20 g/ha
In short: as §2

[18] = tested on: ECHCG; assay: Post-emergence herbicidal action against ECHCG; assay type: in vivo, Echinochloa crus-galli; conditions: Echinochloa crus-galli, 504 h
In short: as §2

[19] = tested on: PHBPU; assay: Pre-emergence herbicidal action against PHBPU; assay type: in vivo, Pharbitis purpurea; conditions: Ipomoea purpurea, 504 h, dosage 80 g/ha
In short: as §1

[20] = tested on: DIGSA; assay: Pre-emergence herbicidal action against DIGSA; assay type: in vivo, Digitaria sanguinalis; conditions: Digitaria sanguinalis, 504 h
In short: as §1

[21] = tested on: VERPE; assay: Post-emergence herbicidal action against VERPE; assay type: in vivo, Veronica persica; conditions: Veronica persica, 504 h, 20 g/ha
In short: as §2

[22] = tested on: DIGSA; assay: Post-emergence herbicidal action against DIGSA; assay type: in vivo, Digitaria sanguinalis; conditions: Digitaria sanguinalis, 504 h
In short: as §2

SMILES	pest or weed control at 80 g/ha [1]	pest or weed control at 80 g/ha [2]	pest or weed control at 80 g/ha [3]	pest or weed control at 20 g/ha [3]	pest or weed control at 20 g/ha [4]	pest or weed control at 80 g/ha [4]	pest or weed control at 20 g/ha [5]	pest or weed control at 20 g/ha [6]	pest or weed control at 80 g/ha [7]	pest or weed control at 20 g/ha [7]	pest or weed control at 5 g/ha [8]	pest or weed control at 80 g/ha [9]	pest or weed control at 20 g/ha [10]	pest or weed control at 80 g/ha [10]	pest or weed control at 80 g/ha [12]	pest or weed control at 80 g/ha [13]	pest or weed control at 5 g/ha [14]	pest or weed control at 20 g/ha [14]	pest or weed control at 20 g/ha [16]	pest or weed control at 20 g/ha [17]	further results
CCNC(=O)c1c(Br)ccc(C(=O)Nc2nnnn2CC)c1Br [Example 2-342]	90%	100%	100%	100%	90%	100%	80%	100%	100%	90%	80%	100%	90%	100%	80%	80%	90%	90%	90%	90%	pest or weed control at 20 g/ha [8]: 90%; pest or weed control at 20 g/ha [9]: 90%; pest or weed control at 20 g/ha ([11]; dosage 20 g/ha): 80%; pest or weed control at 80 g/ha [11]: 80%; pest or weed control at 80 g/ha [15]: 80%; pest or weed control at 5 g/ha [16]: 80%; pest or weed control at 5 g/ha [17]: 90%
CCn1nnnc1NC(=O)c1ccc(Br)c(C(=O)NC2CC2)c1Br [Example 2-343]	100%	100%	100%	–	90%	100%	90%	100%	90%	80%	–	100%	100%	100%	90%	90%	90%	90%	80%	100%	pest or weed control at 20 g/ha [9]: 80%; pest or weed control at 80 g/ha [15]: 90%; pest or weed control at 5 g/ha [17]: 80%
Cc1nnc(NC(=O)c2ccc(C(F)(F)F)c(C(=O)NC(C)C)c2C)o1 [Example 6-255]	80%	100%	100%	100%	80%	90%	–	100%	100%	90%	90%	100%	100%	100%	100%	80%	80%	90%	90%	90%	pest or weed control at 20 g/ha ([2]; dosage 20 g/ha): 100%; pest or weed control at 5 g/ha ([18]; dosage 5 g/ha): 90%; pest or weed control at 20 g/ha ([18]; dosage 20 g/ha): 100%; pest or weed control at 80 g/ha [19]: 90%; pest or weed control at 20 g/ha [8]: 90%; pest or weed control at 20 g/ha ([20]; dosage 20 g/ha): 100%; pest or weed control at 80 g/ha ([20]; dosage 80 g/ha): 100%; pest or weed control at 80 g/ha [11]: 90%; pest or weed control at 20 g/ha [21]: 80%; pest or weed control at 5 g/ha ([22]; 5 g/ha): 90%; pest or weed control at 20 g/ha ([22]; 20 g/ha): 100%; pest or weed control at 5 g/ha [16]: 90%
